# Measurements published in US20260083865A1, “PROSTATE SPECIFIC MEMBRANE ANTIGEN (PSMA) LIGANDS AND USE THEREOF” (priority 2022, published 2026).
# Numbered stars: 1 amine (or outer) side, 2 acyl side, 3 side chain; on linkers, the order of the positions; unused ones are H or OH. Bridge positions count the residues as written; N and C are the ends. Square brackets hold non-standard residues; d marks the D form. Side chains are listed from the residue outwards. Peptide text beside a SMILES is read from it. * marks the point of attachment. DOTA = O=C(O)CN1CCN(CC(=O)O)CCN(CC(=O)*)CCN(CC(=O)O)CC1; Phe(3-Cl) = N[C@@H](Cc1cccc(Cl)c1)C(=O)O; Phe(4-Cl) = N[C@@H](Cc1ccc(Cl)cc1)C(=O)O; Phe(4-Me) = Cc1ccc(C[C@H](N)C(=O)O)cc1; Arg(Me) = CNC(=N)NCCC[C@H](N)C(=O)O; Ethylenediamine = C(CN[*:2])N[*:1]; d(αMeD) = C[C@@](N)(CC(=O)O)C(=O)O; X1 = O=C(CC1CCN([*:1])CC1)[*:2]; Lys(Me) = CNCCCC[C@H](N)C(=O)O; Tle = CC(C)(C)[C@H](N)C(=O)O; 4Amb = NCc1ccc(C(=O)O)cc1; αMeS = C[C@](N)(CO)C(=O)O; Deg = CCC(N)(CC)C(=O)O; AEEA = NCCOCCOCC(=O)O; Aib = CC(C)(N)C(=O)O; X8 = O=C(CC1CCNCC1)*; Ahx = NCCCCCC(=O)O
# Key:
# [1] = target: T1, PSMA-expressing C4-2 cells (Homo sapiens, UniProt Q04609); experiment: FACS binding assay (competition with 50 nM PSM-0183); settings: pIC50 category of FACS binding, C4-2 cells; read-out: pIC50 [C4-2] CAT (converted)
# T1 construct: PSMA-expressing C4-2 cells (ATCC, Cat. No. CRL-3314) were cultured in RPMI-1640; host or cells: C4-2 cells
# T1 sequence (Q04609 whole entry): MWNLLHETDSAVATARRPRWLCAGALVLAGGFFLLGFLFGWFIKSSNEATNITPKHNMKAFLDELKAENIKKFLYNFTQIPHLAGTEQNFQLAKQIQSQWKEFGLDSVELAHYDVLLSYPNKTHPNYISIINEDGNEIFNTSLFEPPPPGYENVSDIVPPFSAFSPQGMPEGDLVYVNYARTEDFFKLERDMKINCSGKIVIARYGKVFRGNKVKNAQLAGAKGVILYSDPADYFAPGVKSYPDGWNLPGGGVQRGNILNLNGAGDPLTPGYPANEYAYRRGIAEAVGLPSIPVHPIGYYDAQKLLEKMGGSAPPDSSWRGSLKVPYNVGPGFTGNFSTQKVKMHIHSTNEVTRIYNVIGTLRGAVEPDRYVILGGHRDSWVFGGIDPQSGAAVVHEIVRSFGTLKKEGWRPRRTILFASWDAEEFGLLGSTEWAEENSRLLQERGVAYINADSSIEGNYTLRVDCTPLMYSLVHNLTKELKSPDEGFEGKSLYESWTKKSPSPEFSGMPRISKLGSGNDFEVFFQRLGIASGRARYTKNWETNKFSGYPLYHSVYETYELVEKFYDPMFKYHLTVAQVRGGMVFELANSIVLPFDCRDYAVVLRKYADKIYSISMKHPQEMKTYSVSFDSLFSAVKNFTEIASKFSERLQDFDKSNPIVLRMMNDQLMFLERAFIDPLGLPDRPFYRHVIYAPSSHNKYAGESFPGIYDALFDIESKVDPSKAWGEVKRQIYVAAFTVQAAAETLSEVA
# In short: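 Competition format: fluorescent tracer PSM-0183 (50 nM) displaced from PSMA on C4-2 cells by a test compound titration over 1 h at 4 °C. Bound tracer was quantified as flow-cytometric AF488 median fluorescence after washing. Four-parameter logistic fits of MFI data gave IC50 and pIC50.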
# [2] = target: T2, Fc-fusion protein of human PSMA (hPSMA-Fc) (Homo sapiens, UniProt Q04609); experiment: Surface plasmon resonance assay (Biacore T200, single cycle kinetic); assay type: binding; settings: pKD category for PSMA SPR activity assay, hPSMA-Fc, 25° C.; read-out: pKD CAT (converted)
# T2 construct: purchased Acro Biosystems PSA-H5264
# T2 sequence (Q04609 44-750 limits assumed): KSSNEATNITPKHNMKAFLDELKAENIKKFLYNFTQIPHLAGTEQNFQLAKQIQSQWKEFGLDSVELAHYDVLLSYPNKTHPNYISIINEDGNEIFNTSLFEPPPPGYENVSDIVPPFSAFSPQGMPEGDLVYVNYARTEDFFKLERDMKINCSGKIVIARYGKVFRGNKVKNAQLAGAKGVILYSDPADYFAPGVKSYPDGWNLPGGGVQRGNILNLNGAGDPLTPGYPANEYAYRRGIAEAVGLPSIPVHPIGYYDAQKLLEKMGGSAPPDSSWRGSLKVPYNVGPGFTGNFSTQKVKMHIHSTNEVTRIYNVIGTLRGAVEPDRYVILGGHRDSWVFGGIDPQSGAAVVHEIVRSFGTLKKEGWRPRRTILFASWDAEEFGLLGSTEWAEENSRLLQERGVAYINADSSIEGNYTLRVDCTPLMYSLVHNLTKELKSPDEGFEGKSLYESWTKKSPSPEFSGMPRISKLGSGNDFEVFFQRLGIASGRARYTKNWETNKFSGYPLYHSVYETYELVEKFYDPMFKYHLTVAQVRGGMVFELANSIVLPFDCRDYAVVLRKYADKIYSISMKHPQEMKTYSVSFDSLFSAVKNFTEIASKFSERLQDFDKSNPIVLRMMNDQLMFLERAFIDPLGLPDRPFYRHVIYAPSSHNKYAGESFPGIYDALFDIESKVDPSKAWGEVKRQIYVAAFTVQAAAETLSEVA
# In short: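 KD, expressed as pKD, came from 1:1 Langmuir fits of reference- and buffer-blank-subtracted SPR data. The runs were single-cycle kinetics at 25° C in HBST/0.1% DMSO over human PSMA-Fc, captured to ~1000 RU on a peptide-coated CM5 surface and regenerated with 10 mM glycine pH 1.5.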
SMILES,IC50 [1] [nM],Kd [2] [nM]
"C[C@@H](O)[C@H](NC(=O)[C@@H](NC(=O)[C@@H]1CSSC[C@H](NC(=O)[C@H](Cc2ccc(Cl)cc2)NC(=O)[C@@](C)(CC(=O)O)NC(=O)[C@@H](NC(=O)CC2CCN(C(=O)CN3CCN(CC(=O)O)CCN(CC(=O)O)CCN(CC(=O)O)CC3)CC2)[C@@H](C)O)C(=O)N[C@@H](CCCCN)C(=O)N[C@@H](CCCNC(=N)N)C(=O)NC(C)(C)C(=O)N[C@@H](CC(N)=O)C(=O)N1)C(C)(C)C)C(N)=O [PSM-0366, DOTA-Cmp-Thr-amd-Pcf-[Cys-Lys-Arg-Aib-Asn-Cys]-Tle-Thr-NH2] ({DOTA}-[X1]T[d(αMeD)][Phe(4-Cl)]CKR[Aib]NC[Tle]T-NH2; disulfide 5-10)",200 to 1260,126 to 501
"CC(=O)N[C@H](C(=O)NC(C)(C)C(=O)N[C@@H](Cc1ccc(Cl)cc1)C(=O)N[C@H]1CSSC[C@@H](C(=O)N[C@H](C(N)=O)C(C)(C)C)NC(=O)[C@H](CC(N)=O)NC(=O)C(C)(C)NC(=O)[C@H](CCCNC(=N)N)NC(=O)[C@H](CCCCN)NC1=O)[C@@H](C)O [PSM-0367, Ac-Thr-Aib-Pcf-[Cys-Lys-Arg-Aib-Asn-Cys]-Tle-NH2] (Ac-T[Aib][Phe(4-Cl)]CKR[Aib]NC[Tle]-NH2; disulfide 4-9)",< 200,< 12.6
"C[C@@H](O)[C@H](NC(=O)[C@@H](NC(=O)[C@@H]1CSSC[C@H](NC(=O)[C@H](Cc2ccccc2)NC(=O)C(C)(C)NC(=O)[C@@H](NC(=O)CCCCCNC(=O)CN2CCN(CC(=O)O)CCN(CC(=O)O)CCN(CC(=O)O)CC2)[C@@H](C)O)C(=O)N[C@@H](CCCCN)C(=O)N[C@@H](CCCNC(=N)N)C(=O)NC(C)(C)C(=O)N[C@@H](CC(N)=O)C(=O)N1)C(C)(C)C)C(N)=O [PSM-0368, DOTA-Ahx-Thr-Aib-Phe-[Cys-Lys-Arg-Aib-Ass-Cys]-Tle-Thr-NH2] ({DOTA-Ahx}-T[Aib]FCKR[Aib]NC[Tle]T-NH2; disulfide 4-9)",< 200,< 12.6
"C[C@@H](O)[C@H](NC(=O)[C@@H](NC(=O)[C@@H]1CSSC[C@H](NC(=O)[C@H](Cc2ccc(Cl)cc2)NC(=O)[C@](C)(CO)NC(=O)[C@@H](NC(=O)CC2CCN(C(=O)CN3CCN(CC(=O)O)CCN(CC(=O)O)CCN(CC(=O)O)CC3)CC2)[C@@H](C)O)C(=O)N[C@@H](CCCCN)C(=O)N[C@@H](CCCNC(=N)N)C(=O)NC(C)(C)C(=O)N[C@@H](CC(N)=O)C(=O)N1)C(C)(C)C)C(N)=O [PSM-0369, DOTA-Cmp-Thr-Ams-Pcf-[Cys-Lys-Arg-Aib-Asn-Cys]-Tle-Thr-NH2] ({DOTA}-[X1]T[αMeS][Phe(4-Cl)]CKR[Aib]NC[Tle]T-NH2; disulfide 5-10)",< 200,< 12.6
"CC(=O)N[C@H](C(=O)NC(C)(C)C(=O)N[C@@H](Cc1ccc(Cl)cc1)C(=O)N[C@H]1CSSC[C@@H](C(=O)N[C@H](C(=O)N[C@H](C(N)=O)[C@@H](C)O)C(C)(C)C)NC(=O)[C@H](CC(N)=O)NC(=O)[C@H](CCCCNC(=O)COCCOCCNC(=O)CN2CCN(CC(=O)O)CCN(CC(=O)O)CCN(CC(=O)O)CC2)NC(=O)[C@H](CCCNC(=N)N)NC(=O)[C@H](CCCCN)NC1=O)[C@@H](C)O [PSM-0370, Ac-Thr-Aib-Pcf-[Cys-Lys-Arg-Lys(DOTA-020c)-Asn-Cys]-Tle-Thr-NH2] (Ac-T[Aib][Phe(4-Cl)]CKRK([AEEA-DOTA])NC[Tle]T-NH2; disulfide 4-9)",< 200,< 12.6
"CC(=O)N[C@H](C(=O)NC(C)(C)C(=O)N[C@@H](Cc1ccc(C)cc1)C(=O)N[C@H]1CSSC[C@@H](C(=O)N[C@H](C(=O)N[C@H](C(N)=O)[C@@H](C)O)C(C)(C)C)NC(=O)[C@H](CC(N)=O)NC(=O)C(C)(C)NC(=O)[C@H](CCCNC(=N)N)NC(=O)[C@H](CCCCN)NC1=O)[C@@H](C)O [PSM-0372, Ac-Thr-Aib-Pmf-[Cys-Lys-Arg-Aib-Asn-Cys]-Tle-Thr-NH2] (Ac-T[Aib][Phe(4-Me)]CKR[Aib]NC[Tle]T-NH2; disulfide 4-9)",< 200,< 12.6
"CCC1(CC)NC(=O)[C@H](CCCNC(=N)N)NC(=O)[C@H](CCCCN)NC(=O)[C@@H](NC(=O)[C@H](Cc2ccccc2)NC(=O)C(C)(C)NC(=O)[C@@H](NC(C)=O)[C@@H](C)O)CSSC[C@@H](C(=O)N[C@H](C(=O)N[C@H](C(N)=O)[C@@H](C)O)C(C)(C)C)NC(=O)[C@H](CC(N)=O)NC1=O [PSM-0375, Ac-Thr-Aib-Phe-[Cys-Lys-Arg-Deg-Asn-Cys]-Tle-Thr-NH2] (Ac-T[Aib]FCKR[Deg]NC[Tle]T-NH2; disulfide 4-9)",< 200,< 12.6
"CC(=O)N[C@H](C(=O)NC(C)(C)C(=O)N[C@@H](Cc1ccccc1)C(=O)N[C@H]1CSSC[C@@H](C(=O)N[C@H](C(=O)N[C@@H](Cc2c[nH]c3ccccc23)C(N)=O)C(C)(C)C)NC(=O)[C@H](CC(N)=O)NC(=O)C(C)(C)NC(=O)[C@H](CCCNC(=N)N)NC(=O)[C@H](CCCCN)NC1=O)[C@@H](C)O [PSM-0376, Ac-Thr-Aib-Phe-[Cys-Lys-Arg-Aib-Asn-Cys]-Tle-Trp-NH2] (Ac-T[Aib]FCKR[Aib]NC[Tle]W-NH2; disulfide 4-9)",< 200,< 12.6
"C[C@@H](O)[C@H](NC(=O)CC1CCNCC1)C(=O)NC(C)(C)C(=O)N[C@@H](Cc1ccccc1)C(=O)N[C@H]1CSSC[C@@H](C(=O)N[C@H](C(=O)N[C@H](C(=O)N2CCC(CC(=O)N[C@H](CCCCNC(=O)CN3CCN(CC(=O)O)CCN(CC(=O)O)CCN(CC(=O)O)CC3)C(N)=O)CC2)[C@@H](C)O)C(C)(C)C)NC(=O)[C@H](CC(N)=O)NC(=O)C(C)(C)NC(=O)[C@H](CCCNC(=N)N)NC(=O)[C@H](CCCCN)NC1=O [PSM-0378, H-Cmp-Thr-Aib-Phe-[Cys-Lys-Arg-Aib-Asn-Cys]-Tle-Thr-Cmp-lys(DOTA)-NH2] (X8-T[Aib]FCKR[Aib]NC[Tle]T[X1][dK](DOTA)-NH2; disulfide 4-9)",< 200,< 12.6
"CC(=O)N1CCC(CC(=O)N[C@H](C(=O)NC(C)(C)C(=O)N[C@@H](Cc2ccc(Cl)cc2)C(=O)N[C@H]2CSSC[C@@H](C(=O)N[C@H](C(=O)NCCNC(=O)CN3CCN(CC(=O)O)CCN(CC(=O)O)CCN(CC(=O)O)CC3)C(C)(C)C)NC(=O)[C@H](CC(N)=O)NC(=O)C(C)(C)NC(=O)[C@H](CCCNC(=N)N)NC(=O)[C@H](CCCCN)NC2=O)[C@@H](C)O)CC1 [PSM-0379, Ac-Cmp-Thr-Aib-Pcf-[Cys-Lys-Arg-Aib-Asn-Cys]-Tle-en-DOTA] (Ac-[X1]T[Aib][Phe(4-Cl)]CKR[Aib]NC[Tle]-{Ethylenediamine-DOTA}; disulfide 5-10)",< 200,< 12.6
"CNCCCC[C@@H]1NC(=O)[C@@H](NC(=O)[C@H](Cc2ccc(Cl)cc2)NC(=O)C(C)(C)NC(=O)[C@@H](NC(=O)CC2CCN(C(=O)CN3CCN(CC(=O)O)CCN(CC(=O)O)CCN(CC(=O)O)CC3)CC2)[C@@H](C)O)CSSC[C@@H](C(=O)N[C@H](C(N)=O)C(C)(C)C)NC(=O)[C@H](CC(N)=O)NC(=O)C(C)(C)NC(=O)[C@H](CCCNC(=N)NC)NC1=O [PSM-0380, DOTA-Cmp-Thr-Aib-Pcf-[Cys-Lys(Me)-Arg(Me)-Aib-Asn-Cys]-Tle-NH2] ({DOTA}-[X1]T[Aib][Phe(4-Cl)]C[Lys(Me)][Arg(Me)][Aib]NC[Tle]-NH2; disulfide 5-10)",< 200,< 12.6
"CC(C)(NC(=O)c1ccc(CNC(=O)CN2CCN(CC(=O)O)CCN(CC(=O)O)CCN(CC(=O)O)CC2)cc1)C(=O)N[C@@H](Cc1ccc(Cl)cc1)C(=O)N[C@H]1CSSC[C@@H](C(=O)N[C@H](C(N)=O)C(C)(C)C)NC(=O)[C@H](CC(N)=O)NC(=O)C(C)(C)NC(=O)[C@H](CCCNC(=N)N)NC(=O)[C@H](CCCCN)NC1=O [PSM-0381, DOTA-Pamb-Aib-Pcf-[Cys-Lys-Arg-Aib-Asn-Cys]-Tle-NH2] ({DOTA-4Amb}-[Aib][Phe(4-Cl)]CKR[Aib]NC[Tle]-NH2; disulfide 3-8)",< 200,< 12.6
"C[C@@H](O)[C@H](NC(=O)[C@@H](NC(=O)[C@@H]1CSSC[C@H](NC(=O)[C@H](Cc2ccc(Cl)cc2)NC(=O)C(C)(C)NC(=O)[C@@H](NC(=O)CC2CCN(C(=O)CN3CCN(CC(=O)O)CCN(CC(=O)O)CCN(CC(=O)O)CC3)CC2)[C@@H](C)O)C(=O)N[C@@H](CCCCN)C(=O)N[C@@H](CCCNC(=N)N)C(=O)N[C@@](C)(CO)C(=O)N[C@@H](CC(N)=O)C(=O)N1)C(C)(C)C)C(N)=O [PSM-0382, DOTA-Cmp-Thr-Aib-Pcf-[Cys-Lys-Arg-Ams-Asn-Cys]-Tle-Thr-NH2] ({DOTA}-[X1]T[Aib][Phe(4-Cl)]CKR[αMeS]NC[Tle]T-NH2; disulfide 5-10)",< 200,< 12.6
"CC(=O)N[C@H](C(=O)NC(C)(C)C(=O)N[C@@H](Cc1cccc(Cl)c1)C(=O)N[C@H]1CSSC[C@@H](C(=O)N[C@H](C(=O)N[C@H](C(=O)N[C@@H](CC(=O)O)C(N)=O)[C@@H](C)O)C(C)(C)C)NC(=O)[C@H](CC(N)=O)NC(=O)C(C)(C)NC(=O)[C@H](CCCNC(=N)N)NC(=O)[C@H](CCCCN)NC1=O)[C@@H](C)O [PSM-0383, Ac-Thr-Aib-Mcf-[Cys-Lys-Arg-Aib-Asn-Cys]-Tle-Thr-Asp-NH2] (Ac-T[Aib][Phe(3-Cl)]CKR[Aib]NC[Tle]TD-NH2; disulfide 4-9)",< 200,< 12.6
